From patent publication US11584747B2, “Substituted pyridopyrimidinonyl compounds useful as T cell activators” (BRISTOL-MYERS SQUIBB COMPANY, priority 2019, dated 2023) come the findings set out here.

Read-outs that look alike come from different tables or passages of the source.

As a reminder, the IC50 is the concentration that inhibits the measured activity by half. One may read the EC50 as the concentration at which the effect is half-maximal.

The subject of one test is whole blood (pERK). Put plainly: pERK Whole Blood assay (Table A; no whole-blood pERK method described). The test is classed as cell-based. The following applies: normalized.
A further test has as its target human DGKα (Homo sapiens (Human), UniProt P23743). As to the kind of experiment: DGKα ADPGLO assay (detergent/lipid micelle substrate). The following applies: truncated DGK alpha; read-out: DGK alpha ADPGLO (Truncated) IC50. Type of test: biochemical. How it is done: DGK Alpha ADPGLO (Truncated) IC50 (uM)
The detergent/lipid micelle was prepared by combining 15 g phosphatidylserine (Avanti 840035P) and 1 g diacylglycerol (8008110) and dissolving into 150 mL chloroform in a 2 L round bottom flask. Chloroform was removed under high vacuum by rotary evaporation. […] The lipid/detergent solution was split into 5 mL aliquots and stored at −80° C.

For test [1], the system named is human venous whole blood (IFN-γ). As to the kind of experiment: Human whole blood IFN-γ assay. Type of test: cell-based. The following applies: whole blood, normalized to 3 μM reference compound as 100% activation, read-out: IFN-γ Whole Blood Normalized EC50. How it is done:
Human venous whole blood (22.5 μL per well), obtained from healthy donors, was pre-treated with compounds for one hour at 37° C. in a humidified 95% air/5% CO2 incubator. The blood was stimulated with 2.5 μL anti-human CD3 and anti-CD28 mAb at a final concentration of 1 μg/mL each for 24 hours at 37° C. IFN-γ in the supernatants was measured using AlphLISA kit (Cat #AL217).

In a further test the target is human DGKζ (Homo sapiens (Human), UniProt Q13574). As to the kind of experiment: DGKζ LIPGLO assay (extruded liposome substrate, ADP-Glo luminescence). Type of test: biochemical. Conditions: liposome assay; read-out: DGK zeta LIPGLO IC50.
human DGKζ, sequence (Q13574 other isoform, or with tags, fused parts or gaps): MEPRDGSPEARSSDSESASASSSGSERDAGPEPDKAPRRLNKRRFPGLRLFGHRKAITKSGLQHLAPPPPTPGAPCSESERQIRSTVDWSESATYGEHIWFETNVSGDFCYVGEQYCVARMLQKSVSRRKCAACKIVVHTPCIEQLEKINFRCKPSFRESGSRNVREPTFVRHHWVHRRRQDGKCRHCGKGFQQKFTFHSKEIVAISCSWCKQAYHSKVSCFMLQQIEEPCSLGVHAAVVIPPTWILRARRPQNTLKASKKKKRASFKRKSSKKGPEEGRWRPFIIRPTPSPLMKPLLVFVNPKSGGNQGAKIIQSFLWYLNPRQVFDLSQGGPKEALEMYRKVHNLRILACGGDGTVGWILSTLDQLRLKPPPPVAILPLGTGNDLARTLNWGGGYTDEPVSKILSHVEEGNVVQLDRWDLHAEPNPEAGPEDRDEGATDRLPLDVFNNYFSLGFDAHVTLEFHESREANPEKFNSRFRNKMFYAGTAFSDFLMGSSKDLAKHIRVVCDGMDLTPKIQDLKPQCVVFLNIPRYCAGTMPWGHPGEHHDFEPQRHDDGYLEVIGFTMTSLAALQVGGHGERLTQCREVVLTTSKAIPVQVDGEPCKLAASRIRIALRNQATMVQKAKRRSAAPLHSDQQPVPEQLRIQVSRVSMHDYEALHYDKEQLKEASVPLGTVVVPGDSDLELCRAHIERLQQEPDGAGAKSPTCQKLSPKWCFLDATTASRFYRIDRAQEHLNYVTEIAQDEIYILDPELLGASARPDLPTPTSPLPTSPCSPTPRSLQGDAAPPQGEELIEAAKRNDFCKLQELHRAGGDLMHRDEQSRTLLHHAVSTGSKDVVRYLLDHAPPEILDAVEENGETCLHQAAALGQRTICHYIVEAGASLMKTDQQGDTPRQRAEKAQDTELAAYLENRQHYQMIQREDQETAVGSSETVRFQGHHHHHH

human DGKα, sequence (P23743 whole entry, looked up, the tested form may be a part): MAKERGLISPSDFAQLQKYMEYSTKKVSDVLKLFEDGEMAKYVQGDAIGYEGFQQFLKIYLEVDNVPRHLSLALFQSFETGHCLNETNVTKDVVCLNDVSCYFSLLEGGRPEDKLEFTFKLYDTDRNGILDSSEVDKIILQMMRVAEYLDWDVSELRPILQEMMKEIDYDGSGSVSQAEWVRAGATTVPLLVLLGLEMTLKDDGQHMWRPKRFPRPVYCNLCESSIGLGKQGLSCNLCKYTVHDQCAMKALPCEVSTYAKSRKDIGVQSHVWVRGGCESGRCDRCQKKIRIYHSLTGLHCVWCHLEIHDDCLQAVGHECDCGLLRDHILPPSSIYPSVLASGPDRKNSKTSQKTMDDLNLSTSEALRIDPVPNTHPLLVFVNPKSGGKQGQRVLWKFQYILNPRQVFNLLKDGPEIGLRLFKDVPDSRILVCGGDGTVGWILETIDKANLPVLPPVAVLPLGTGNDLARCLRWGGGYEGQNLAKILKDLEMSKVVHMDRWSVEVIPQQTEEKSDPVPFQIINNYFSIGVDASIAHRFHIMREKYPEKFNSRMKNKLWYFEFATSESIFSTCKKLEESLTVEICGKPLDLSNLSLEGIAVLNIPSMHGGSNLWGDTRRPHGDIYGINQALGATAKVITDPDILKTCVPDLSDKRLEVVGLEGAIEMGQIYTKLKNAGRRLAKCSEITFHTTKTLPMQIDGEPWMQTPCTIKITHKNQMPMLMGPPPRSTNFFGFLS

As for `CCC(c1ccc(C(F)(F)F)cc1)N1C[C@H](CC)N(c2nc(=O)n(C)c3ccc(C#N)nc23)C[C@H]1CC` (single isomer, unassigned) [Example 6], the IC50 in the test on whole blood (pERK) was found to be 6980 nM; at human DGKα, 58 nM.

With `CC[C@@H]1CN(c2nc(=O)n(C)c3ccc(C#N)nc23)[C@@H](C)CN1C(C)c1ccc(C(F)(F)F)cc1` (single isomer, unassigned) [Example 8], the IC50 in the test on whole blood (pERK) was 180 nM; on human DGKα, 140 nM.

In the case of `CC[C@@H]1CN(c2nc(=O)n(C)c3ccc(C#N)nc23)[C@@H](C)CN1C(c1ccc(F)cc1)c1ccc(C(F)(F)F)cn1` (single isomer, unassigned) [Example 47], the half-maximal effective concentration (EC50) in test [1] (Homo sapiens) came out at 32 nM. Further, half-maximal inhibition in the test with whole blood (pERK) (IC50) was put at 20 nM.

As for `CC[C@@H]1CN(c2nc(=O)n(C)c3ccc(C#N)nc23)[C@@H](C)CN1C(c1ccc(Cl)cc1)c1ccccn1` (single isomer, unassigned) [Example 95], in test [1], the EC50 is 370 nM. Further, the 50% inhibitory concentration (IC50) with whole blood (pERK) was 10500 nM.

As to `CC[C@H]1CN(C(c2ccc(F)cc2)c2nc(C3CC3)no2)[C@H](CC)CN1c1nc(=O)n(C)c2ccc(C#N)nc12` (single isomer, unassigned) [Example 110], in test [1], the EC50 was 9 nM. Further, the IC50 in the test with whole blood (pERK) turned out to be 15 nM.

On to `CC[C@H]1CN(C(c2ccc(F)cc2)c2nc(C3CC3)no2)[C@H](CC)CN1c1nc(=O)n(C)c2ccc(C#N)nc12` (single isomer, unassigned) [Example 111], for which, in test [1], the EC50 was found to be 21 nM. For the same molecule, it took 90 nM to reach half-maximal inhibition in the test with whole blood (pERK) (IC50).

`C[C@@H]1CN(c2nc(=O)n(C)c3ccc(C#N)nc23)[C@@H](C)CN1C(c1ccc(F)cc1)c1ccc(C(F)(F)F)cn1` (single isomer, unassigned) [Example 127]: the EC50 in test [1] (Homo sapiens) was found to be 410 nM. In the test with whole blood (pERK), this molecule came in with an IC50 of 240 nM.

On to `CC[C@@H]1CN(c2nc(=O)n(C)c3ccc(C#N)nc23)[C@@H](C)CN1C(c1ccc(F)cc1)c1ccc(C(F)(F)F)cn1` (stereo partly drawn) [Example 46, 4-((2S,5R)-5-Ethyl-4((4-fluorophenyl)(5-(trifluoromethyl)pyridin-2-yl)methyl)-2-methylpiperazin-1-yl)-1-methyl-2-oxo-1,2-dihydropyrido[3,2-d]pyrimidine-6-carbonitrile], for which the EC50 in test [1] (Homo sapiens) was found to be 73 nM. This molecule returned a half-maximal inhibitory concentration (IC50) in the test on whole blood (pERK) of 43 nM.

As to `CC[C@H]1CN(C(C)c2ccc(C(F)(F)F)cc2N2CCOCC2)[C@H](CC)CN1c1nc(=O)n(C)c2ccc(C#N)nc12` (stereo partly drawn) [Example 194, 4-((2S,5R)-2,5-diethyl-4-(1-(2-morpholino-4-(trifluoromethyl)phenyl)ethyl)piperazin-1-yl)-1-methyl-2-oxo-1,2-dihydropyrido[3,2-d]pyrimidine-6-carbonitrile], the IC50 amounted to 5250 nM on human DGKζ and 270 nM in the test on whole blood (pERK).

Take `CCC(c1ccc(OC(C)C)cc1)N1C[C@H](CC)N(c2nc(=O)n(C)c3ccc(C#N)nc23)C[C@H]1CC` (stereo partly drawn) [Example 234, 4-((2S,5R)-2,5-diethyl-4-(1-(4-isopropoxyphenyl)propyl)piperazin-1-yl)-1-methyl-2-oxo-1,2-dihydropyrido[3,2-d] pyrimidine-6-carbonitrile]: the 50% inhibitory concentration (IC50) at human DGKζ came out at 59 nM; in the test on whole blood (pERK), 80 nM; on human DGKα it was 36 nM.

Consider `CC[C@H]1CN(C(C)c2cccc(OC(F)(F)F)n2)[C@H](CC)CN1c1nc(=O)n(C)c2ccc(C#N)nc12` (stereo partly drawn) [Example 246, 4-((2S,5R)-2,5-diethyl-4-(1-(6-(trifluoromethoxy)pyridin-2-yl)ethyl)piperazin-1-yl)-1-methyl-2-oxo-1,2-dihydropyrido[3,2-d]pyrimidine-6-carbonitrile], for which the values for the IC50 on human DGKζ, in the test with whole blood (pERK) and at human DGKα were 5850 nM, 440 nM and 4670 nM, respectively.

Take `CC[C@H]1CN(C(c2ccc(OC)cc2)C(C)C)[C@H](CC)CN1c1nc(=O)n(C)c2ccc(C#N)nc12` (stereo partly drawn) [Example 249, 4-((2S,5R)-2,5-diethyl-4-(1-(4-methoxyphenyl)-2-methylpropyl)piperazin-1-yl)-1-methyl-2-oxo-1,2-dihydropyrido[3,2-d]pyrimidine-6-carbonitrile]: the IC50 came to 40 nM at human DGKζ and 420 nM in the test on whole blood (pERK).

For the molecule `CC[C@H]1CN(C(c2ccc(OC)cc2)C(C)C)[C@H](CC)CN1c1nc(=O)n(C)c2ccc(C#N)nc12` (stereo partly drawn) [Example 250, 4-((2S,5R)-2,5-diethyl-4-(1-(4-methoxyphenyl)-2-methylpropyl)piperazin-1-yl)-1-methyl-2-oxo-1,2-dihydropyrido[3,2-d]pyrimidine-6-carbonitrile], the IC50 came to 1150 nM on human DGKζ, 1800 nM in the test on whole blood (pERK) and 330 nM at human DGKα.

As to `CCC(c1ccc(C(C)(C)C#N)cc1)N1C[C@H](CC)N(c2nc(=O)n(C)c3ccc(C#N)nc23)C[C@H]1CC` (stereo partly drawn) [Example 251, 4-((2S,5R)-4-(1-(4-(2-cyanopropan-2-yl)phenyl)propyl)-2,5-diethylpiperazin-1-yl)-1-methyl-2-oxo-1,2-dihydropyrido[3,2-d]pyrimidine-6-carbonitrile], the IC50 at human DGKζ stood at 18 nM; in the test with whole blood (pERK), 1580 nM; at human DGKα, 34 nM.

As for `CCC(c1ccc(C(C)(C)C#N)cc1)N1C[C@H](CC)N(c2nc(=O)n(C)c3ccc(C#N)nc23)C[C@H]1CC` (stereo partly drawn) [Example 252, 4-((2S,5R)-4-(1-(4-(2-cyanopropan-2-yl)phenyl)propyl)-2,5-diethylpiperazin-1-yl)-1-methyl-2-oxo-1,2-dihydropyrido[3,2-d]pyrimidine-6-carbonitrile], the IC50 at human DGKζ was found to be 780 nM; with whole blood (pERK), 4280 nM; at human DGKα, 270 nM.

Turning to `CCC(c1ccc(OC2CC2)cc1)N1C[C@H](CC)N(c2nc(=O)n(C)c3ccc(C#N)nc23)C[C@H]1CC` (stereo partly drawn) [Example 255, 4-((2S,5R)-4-(1-(4-cyclopropoxyphenyl)propyl)-2,5-diethylpiperazin-1-yl)-1-methyl-2-oxo-1,2-dihydropyrido[3,2-d]pyrimidine-6-carbonitrile], the IC50 on human DGKζ came to 120 nM; in the test on whole blood (pERK), 540 nM; on human DGKα, 58 nM.

In the case of `CCC(c1ccc(OC2CC2)cc1)N1C[C@H](CC)N(c2nc(=O)n(C)c3ccc(C#N)nc23)C[C@H]1CC` (stereo partly drawn) [Example 256, 4-((2S,5R)-4-(1-(4-cyclopropoxyphenyl)propyl)-2,5-diethylpiperazin-1-yl)-1-methyl-2-oxo-1,2-dihydropyrido[3,2-d]pyrimidine-6-carbonitrile], the IC50 on human DGKζ was determined as 2940 nM; with whole blood (pERK), 290 nM; at human DGKα it was 1510 nM.

For the molecule `CC[C@H]1CN(C(c2ccc(OC(C)C)cc2)C(C)C)[C@H](CC)CN1c1nc(=O)n(C)c2ccc(C#N)nc12` (stereo partly drawn) [Example 261, 4-((2S,5R)-2,5-diethyl-4-(1-(4-isopropoxyphenyl)-2-methylpropyl)piperazin-1-yl)-1-methyl-2-oxo-1,2-dihydropyrido[3,2-d]pyrimidine-6-carbonitrile], the IC50 on human DGKζ is 17 nM; with whole blood (pERK), 680 nM; at human DGKα it was 170 nM.

`CC[C@H]1CN(C(C)c2ccc(CN3CC4(COC4)C3)cc2)[C@H](CC)CN1c1nc(=O)n(C)c2ccc(C#N)nc12` (stereo partly drawn) [Example 279, 4-((2S,5R)-4-(1-(4-((2-oxa-6-azaspiro[3.3]heptan-6-yl)methyl)phenyl)ethyl)-2,5-diethylpiperazin-1-yl)-1-methyl-2-oxo-1,2-dihydropyrido[3,2-d]pyrimidine-6-carbonitrile]: the half-maximal inhibitory concentration (IC50) at human DGKζ came out at 62400 nM; in the test on whole blood (pERK), 2920 nM; on human DGKα, 17000 nM.

Turning to `CC[C@H]1CN(C(C)c2ccc(CN3CC4(COC4)C3)cc2)[C@H](CC)CN1c1nc(=O)n(C)c2ccc(C#N)nc12` (stereo partly drawn) [Example 280, 4-((2S,5R)-4-(1-(4-((2-oxa-6-azaspiro[3.3]heptan-6-yl)methyl)phenyl)ethyl)-2,5-diethylpiperazin-1-yl)-1-methyl-2-oxo-1,2-dihydropyrido[3,2-d]pyrimidine-6-carbonitrile], the IC50 on human DGKζ turned out to be 125000 nM; in the test on whole blood (pERK), 150 nM; at human DGKα it was 42700 nM.

Turning to `CC[C@H]1CN(C(C)c2ccc(CN3CCC[C@@H](O)C3)cc2)[C@H](CC)CN1c1nc(=O)n(C)c2ccc(C#N)nc12` (stereo partly drawn) [Example 290, 4-((2S,5R)-2,5-diethyl-4-(1-(4-(((R)-3-hydroxypiperidin-1-yl)methyl)phenyl)ethyl)piperazin-1-yl)-1-methyl-2-oxo-1,2-dihydropyrido[3,2-d]pyrimidine-6-carbonitrile], the IC50 is 57200 nM at human DGKζ, 20000 nM in the test on whole blood (pERK) and 1950 nM on human DGKα.

`CC[C@H]1CN(C(C)c2ccc(CN3C[C@@H](C)O[C@@H](C)C3)cc2)[C@H](CC)CN1c1nc(=O)n(C)c2ccc(C#N)nc12` (stereo partly drawn) [Example 291, 4-((2S,5R)-4-(1-(4-(((2S,6R)-2,6-dimethylmorpholino)methyl)phenyl)ethyl)-2,5-diethylpiperazin-1-yl)-1-methyl-2-oxo-1,2-dihydropyrido[3,2-d]pyrimidine-6-carbonitrile]: the concentration for half-maximal inhibition (IC50) on human DGKζ is 430 nM; with whole blood (pERK) it was 390 nM; at human DGKα it was 110 nM.
